In patent US20250082633A1, “COMPOUNDS AND METHODS FOR MODULATING SPLICING” (REMIX THERAPEUTICS INC., priority 2021, published 2025) one finds IC50 and GI50 data, which are given here for 28 molecules.

One assay deals with Target C. Put plainly: HiBit protein abundance assay, Target C. The class given is cell-based. The following applies: Homo sapiens; K562 HiBiT-modified cells, 24 hours, luminescence. The method, then:
Compounds described herein were used to screen for effects on quantitative protein abundance using a HiBit assay system (Promega). Quantitative protein abundance was determined by measuring the protein levels of HiBit-tagged protein targets expressed in cell culture via luminescence using the Nano-Glo HiBiT Lytic Detection System, which uses a split complementation assay format to reconstitute NanoBiT enzyme to generate a luminescent signal. A protein abundance assay was developed such that endogenous protein targets could be modified with the HiBiT peptide tag and their abundance could be assessed after compound treatment. Briefly, K562 cell lines containing a HiBiT-modification were treated with various compounds described herein (e.g., compounds of Formulas (I), (II), or (III)). After treatment for 24 hours, the protein abundance of a specific target was determined by measuring luminescence. • Promega Nano-Glo HiBiT Lytic Detection System (cat #N3030) • Corning 384-well TC-treated microplates (cat #3570) • Synthego Engineered Cells Knock-In Clones Cells were maintained in IMDM with 10% FBS. Before the assay, cells were diluted with phenolphthalein-free growth media (IMDM+1% FBS media) and were seeded in a 384-well plate at a density of 10000 cells/well (for each cell line listed in Table 6). Each compound was prepared as a 10-point 3-fold serial dilution in DMSO with the top dose at a final concentration of 10 μM in the well. Unmodified K562 cells were added at the previously specified density with DMSO to serve as an assay baseline and positive control (PC) and DMSO only with the respective modified cell lines was added to the negative control (NC) columns. Final DMSO concentration was kept at or below 0.25%. Treated cell plates were placed in an incubator at 37° C. with 5% CO2 for 24 hours. After 24 hours, 25 μL of Complete HiBit Lytic reagent was added to each well at room temperature (e.g. one plate requiring 10 mL Lytic Buffer, 100 μL LgBiT Protein, 200 μL Lytic Substrate), shaken for 5 minutes at 600 RPM, then left to sit for 10 minutes for signal to stabilize before reading on a Spark Cyto plate reader (Tecan) with a 500 ms measurement time. To determine compound effects on protein abundance of each target in Table 6, the percent response for each respective cell line was calculated at each compound concentration as follows: For the normalized response at each concentration, a four-parameter logistical regression was fit to the data and the response was interpolated at the 50% value to determine a concentration for protein abundance at 50% (IC50) the untreated control.
(In general: The HiBiT peptide binds its large partner to form an active luciferase.)

A further assay concerns K562 cells. As to the kind of experiment: Cell Titer Glo 2.0 cell viability assay. Conditions: Homo sapiens, 500 cells/well, 72 hours. The class given is cell-based. The method, then:
Compounds described herein were screened for toxicity in K562 (human chronic myelogenous leukemia) and SH-SY5Y (human neuroblastoma) cells using a Cell Titer Glo 2.0 assay. • Promega CellTiter-Glo® 2.0 Cell Viability Assay (cat #G9241) • Corning 384-well TC-treated microplates (cat #3570) Cells were plated at 500 cells/well (K562 cells) in 45 μL of IMDM supplemented with 10% FBS in a 384-well opaque plate. Wells containing only medium were used as a blank control. Test compounds (e.g., compounds of Formula (I), (II), or (III)) were first serially diluted in DMSO then diluted 1:100 with IMDM+10% FBS. The final concentration of DMSO was 0.1% in each well. The cells were incubated for 72 hours at 37° C. and 5% CO2 before assaying with Cell Titer Glo 2.0 reagent.
Background: ATP-based viability assays read luminescence as a measure of living cells.

As a reminder, the IC50 is the midpoint of a concentration-inhibition curve. Broadly, the GI50 is the concentration that inhibits growth by half. The low end stands for more potent growth inhibition, the high end for less potent growth inhibition.

Counter-ions that a name gives are not always drawn.

In the case of `Cc1cn2nc(-c3cc(F)c4nn(C5CCN(C6CCC6)CC5)cc4c3)cc(C)c2n1` [Compound 151, 6-[2-(1-cyclobutyl-4-piperidyl)-7-fluoro-indazol-5-yl]-2,8-dimethyl-imidazo [1,2-b] pyridazine], in the assay on Target C, the IC50 is < 100 nM.
As to `Cn1cc2cc(-c3cc(F)c4nn(C5CCNCC5)nc4c3)cc(F)c2n1` [Compound 103, 4-fluoro-6-(7-fluoro-2-methyl-indazol-5-yl)-2-(4-piperidyl) benzotriazole], the concentration for 50% growth inhibition (GI50) with K562 cells is 1000 to 10000 nM. In the assay on Target C, the concentration for half-maximal inhibition (IC50) lay within 100 to 1000 nM.
With `Cc1cn2nc(-c3cc(F)c4nn(C5CCNC6(CC6)C5)cc4c3)cc(C)c2n1` (centres unmarked) [Compound 171, 6-[2-(4-azaspiro[2.5]octan-7-yl)-7-fluoro-indazol-5-yl]-2,8-dimethyl-imidazo[1,2-b]pyridazine], the GI50 in the assay with K562 cells lay in the range of 100 to 1000 nM. Also, the IC50 with Target C is < 100 nM.
On the same counts, the results for `Cc1c(O)c(-c2ccc3nn(C4CCNCC4)nc3n2)cc2cn(C)nc12` [Compound 113, 2,7-dimethyl-5-[2-(4-piperidyl)triazolo[4,5-b]pyridin-5-yl]indazol-6-ol] are 1000 to 10000 nM and 1000 to 10000 nM.
The like results for `Cc1ccc2nc(-c3cc(F)c4nn(C5CCNCC5)cc4c3)ccc2n1` [Compound 157, 2-[7-fluoro-2-(4-piperidyl)indazol-5-yl]-6-methyl-1,5-naphthyridine] were, in that order, > 10000 nM and > 10000 nM.
Take `Cc1cn2nc(-c3cc(F)c4nn(C5CCN(C6CCC6)C6(CC6)C5)cc4c3)cc(C)c2n1` (centres unmarked) [Compound 186, 6-[2-(4-cyclobutyl-4-azaspiro[2.5]octan-7-yl)-7-fluoro-indazol-5-yl]-2,8-dimethyl-imidazo[1,2-b]pyridazine]: the GI50 in the assay with K562 cells lay within 100 to 1000 nM. The IC50 in the assay on Target C is < 100 nM.
On the same counts, the results for `Cc1cc(-n2cc3cc(N4CCNCC4)ccc3n2)cc2cn(C)nc12` [Compound 121, 2,7-dimethyl-5-(5-piperazin-1-ylindazol-2-yl)indazole] are 1000 to 10000 nM and > 10000 nM.
On the same counts, the results for `Cc1cn2nc(-c3cc(F)c4nn(C5CCNC6(CCC6)C5)cc4c3)cc(C)c2n1` (centres unmarked) [Compound 189, 6-[2-(5-azaspiro[3.5]nonan-8-yl)-7-fluoro-indazol-5-yl]-2,8-dimethyl-imidazo[1,2-b]pyridazine] are 100 to 1000 nM and < 100 nM.
`Cc1cn2nc(-c3cc(F)c4nn(C5CCN(CCO)C6(CC6)C5)cc4c3)cc(C)c2n1` (centres unmarked) [Compound 180, 2-[7-[5-(2,8-dimethylimidazo[1,2-b]pyridazin-6-yl)-7-fluoro-indazol-2-yl]-4-azaspiro[2.5]octan-4-yl]ethanol] had a GI50 in the assay with K562 cells of 100 to 1000 nM. In addition, in the assay with Target C, the IC50 is < 100 nM.
On the same counts, the results for `Cc1cn2nc(-c3ccc4nn(C5CCNCC5)cc4n3)cc(C)c2n1` [Compound 138, 2,8-dimethyl-6-[2-(4-piperidyl)pyrazolo[4,3-b]pyridin-5-yl]imidazo[1,2-b]pyridazine] are 1000 to 10000 nM and 100 to 1000 nM.
On to `Cc1cn2nc(-c3cc4cn(C5CCNCC5)nc4cn3)cc(C)c2n1` [Compound 147, 2,8-dimethyl-6-[2-(4-piperidyl)pyrazolo[3,4-c]pyridin-5-yl]imidazo[1,2-b]pyridazine], for which the GI50 in the assay on K562 cells was 100 to 1000 nM. Besides, in the assay on Target C, the IC50 lay within 100 to 1000 nM.
Molecule `Cc1cn2nc(-n3cc4cc(C5CCNCC5)cc(F)c4n3)cc(C)c2n1` [Compound 120, 6-[7-fluoro-5-(4-piperidyl)indazol-2-yl]-2,8-dimethyl-imidazo[1,2-b]pyridazine] gave a GI50 in the assay with K562 cells of 1000 to 10000 nM. In addition, the IC50 with Target C was > 10000 nM.
With `Fc1cc(-c2ccc3cnccc3c2)cc2cn(C3CCNCC3)nc12` [Compound 161, 6-[7-fluoro-2-(4-piperidyl)indazol-5-yl]isoquinoline], the GI50 in the assay with K562 cells lay within 1000 to 10000 nM. The molecule further returned an IC50 in the assay with Target C of 1000 to 10000 nM.
With `Cc1cn2nc(-c3cc4cn(C5CCNCC5)nc4cc3O)cc(C)c2n1` [Compound 154, 5-(2,8-dimethylimidazo[1,2-b]pyridazin-6-yl)-2-(piperidin-4-yl)-2H-indazol-6-ol], the GI50 with K562 cells fell in the range of 100 to 1000 nM. Besides, the IC50 in the assay with Target C was < 100 nM.
The like results for `Cc1cn2cc(-c3cc(F)c4nn(C5CCNCC5)cc4c3)cc(C)c2n1` [Compound 125, 5-(2,8-dimethylimidazo[1,2-a]pyridin-6-yl)-7-fluoro-2-(4-piperidyl)indazole] were, in that order, 100 to 1000 nM and < 100 nM.
`Cc1cc(-c2cc(F)c3nn(C4CCNCC4)cc3c2)cc2cn(C)nc12` [Compound 133, 5-(2,7-dimethylindazol-5-yl)-7-fluoro-2-(4-piperidyl)indazole]: the GI50 in the assay on K562 cells lay in the range of 100 to 1000 nM. In addition, the half-maximal inhibitory concentration (IC50) with Target C is < 100 nM.
`Cc1cn2nc(-c3cc(F)c4nn(C5CCN(CC6CC6)C6(CC6)C5)cc4c3)cc(C)c2n1` (centres unmarked) [Compound 183, 6-[2-[4-(cyclopropylmethyl)-4-azaspiro[2.5]octan-7-yl]-7-fluoro-indazol-5-yl]-2,8-dimethyl-imidazo[1,2-b]pyridazine] had a GI50 in the assay with K562 cells of 100 to 1000 nM. Besides, in the assay with Target C, the IC50 was < 100 nM.
With `Cc1cn2nc(-c3cc(F)c4nn(C5CCN(C)C6(CC6)C5)cc4c3)cc(C)c2n1` (centres unmarked) [Compound 174, 6-[7-fluoro-2-(4-methyl-4-azaspiro[2.5]octan-7-yl)indazol-5-yl]-2,8-dimethyl-imidazo[1,2-b]pyridazine], the GI50 in the assay with K562 cells lay within 100 to 1000 nM. In the assay on Target C, the IC50 is < 100 nM.
With `Cc1cc(-n2cc3cc(C4CCNCC4)cc(F)c3n2)cc2cn(C)nc12` [Compound 115, 2-(2,7-dimethylindazol-5-yl)-7-fluoro-5-(4-piperidyl)indazole], the GI50 with K562 cells was 1000 to 10000 nM. The molecule also returned an IC50 in the assay on Target C of 1000 to 10000 nM.
In the case of `Cc1nc2ccc(-c3cc(F)c4nn(C5CCNCC5)cc4c3)cc2s1` [Compound 134, 6-(7-fluoro-2-(piperidin-4-yl)-2H-indazol-5-yl)-2-methylbenzo[d]thiazole], in the assay with K562 cells, the GI50 lay within 1000 to 10000 nM. Also, in the assay with Target C, the IC50 is 1000 to 10000 nM.
Molecule `Cc1nc2c(C)c(O)c(-c3cc(F)c4nn(C5CCNCC5)cc4c3)cc2o1` [Compound 123, 6-[7-fluoro-2-(4-piperidyl)indazol-5-yl]-2,4-dimethyl-1,3-benzoxazol-5-ol] had a GI50 in the assay with K562 cells of 1000 to 10000 nM. The IC50 in the assay with Target C lay within 100 to 1000 nM.
On the same counts, the results for `Cc1cn2cc(-c3cc(F)c4nn(C5CCNCC5)cc4c3)cc(Cl)c2n1` [Compound 127, 5-(8-chloro-2-methylimidazo[1,2-a]pyridin-6-yl)-7-fluoro-2-(piperidin-4-yl)-2H-indazole hydrochloride salt] are 100 to 1000 nM and < 100 nM.
The like results for `Cc1nc2c(C)cc(-n3cc4cc(N5CCNCC5)cc(F)c4n3)cc2o1` [Compound 119, 6-(7-fluoro-5-piperazin-1-yl-indazol-2-yl)-2,4-dimethyl-1,3-benzoxazole] were, in that order, > 10000 nM and > 10000 nM.
Turning to `Cc1cn2nc(-c3cc4cn(C5CCNCC5)nc4c(O)n3)cc(C)c2n1` [Compound 139, 5-(2,8-dimethylimidazo[1,2-b]pyridazin-6-yl)-2-(4-piperidyl)-6H-pyrazolo[3,4-c]pyridin-7-one], the IC50 in the assay on Target C fell in the range of 100 to 1000 nM.
The same measure, in the same setting: as for `Cc1cn2nc(-c3cc(F)c4nn(C5CCN(CCF)CC5)cc4c3)cc(C)c2n1` [Compound 152], the figure is 100 to 1000 nM.
Same read-out and setting: as for `Cc1cn2nc(-c3cc(F)c4nn(C5CCN(C)CC5)cc4c3)cc(C)c2n1` [Compound 150, 6-[7-fluoro-2-(1-methyl-4-piperidyl)indazol-5-yl]-2,8-dimethyl-imidazo[1,2-b]pyridazine], the figure is < 100 nM; as for `Cc1cn2nc(-c3cc4cn(C5CCNCC5)nc4c(OCc4ccccc4)n3)cc(C)c2n1` [Compound 153, 6-[7-benzyloxy-2-(4-piperidyl)pyrazolo [3,4-c]pyridin-5-yl]-2,8-dimethyl-imidazo[1,2-b]pyridazine], 1000 to 10000 nM; as for `Cn1cc2cc(-c3cc(Cl)c4nn(C5CCNCC5)cc4n3)c(O)cc2n1` [Compound 141], > 10000 nM.
